Data published in patent US20230053688A1, “METHODS TO ALTER LATENCY IN EBV+ MALIGNANCIES” (Cornell University, priority 2020, published 2023).
Read-outs that look alike come from different tables or passages of the source.

Key:
[1] = system: LMP1 expression in Kem I cells; experiment: microbe, parasite or virus in culture; assay type: cell-based, EBV; conditions: for fold induction at 1 µM / fold induction at 2.5 µM: human gammaherpesvirus 4, 48 h
[2] = system: LMP1 and Cp transcripts in Kem I, Mutu I, and Rael cell lines; assay type: cell-based, EBV
[3] = system: LMP1 and EBNA3C proteins in BL cells; experiment: Immunoblot for viral proteins in BL cells; assay type: cell-based, EBV; conditions: 48 hours
Experimental: Immunoblot was performed with the standard procedure using the following antibodies: β-actin (GeneTex), BZLF1 (Santa Cruz), EBNA1 (Santa Cruz), EBNA2 (AbCam), EBNA3C (gift from Benjamin Gewurz), GAPDH (GeneTex), and LMP1 (AbCam).
Since decitabine and 5-azacytadine were the top hits on the epigenetic screen, the effect of these agents on latency II/III transcript and protein expression was investigated as well as the dose-response in a panel of BL cell lines. BL cells were treated with decitabine or 5-azacytidine over a range of doses. Viral antigen expression was evaluated by qRT-PCR, immunoblot, and immunohistochemistry. […] This was associated with upregulation of LMP1 and EBNA3C proteins (FIG. 2B).

[4] = system: EBNA2 and LMP1 in Mutu I, Kem I, and Rael cells; experiment: Immunohistochemistry on cell blocks, statement across the three cell lines; assay type: cell-based, EBV; conditions: 5-Aza at 4 uM, 48 hours, compared with decitabine
Experimental: Cell blocks were generated from cell lines in suspension by fixation in 10% formalin. Immunohistochemistry on cell blocks and mouse tumors was performed with the following antibodies: EBNA2 (abcam #ab90543), LMP1 (Dako #M0897), BZLF1 (Santa Cruz #SC-53904), CD8 (Leica #PA0183), PD-1 (Dako #M3653), PD-L1 (Cell Marque #315M-98). The Halo® image analysis software program (Indica Labs) was used to quantify immunohistochemical stains.
Next it was determined the percentage of cells that convert to expressing latency […] antigens after treatment with decitabine or 5-azacytadine. To do this, EBV antigen expression at the single-cell level was evaluated by immunohistochemistry (IHC) from cell blocks. Cells were treated with 5-azacytidine, decitabine, or vehicle control. Cell blocks were then evaluated by IHC for LMP1 and EBNA2. The percentage of positive cells was quantified with HALO image analysis. […] 5-azacytidine induced a more modest expression of EBNA2 and LMP1 across the three cell lines (FIGS. 2E-F). Based on these observations, decitabine was further investigated as a potential agent to induce expression of immunogenic viral antigens in latency I tumors.

[5] = system: Mutu I; experiment: Cell viability, CellTiter-Glo; conditions: read-out: 48 Hour IC50
Experimental: (§1) Cell viability was determined using CellTiter-Glo (Promega) and the GloMax® Multi+ detection system (Promega).
(§2) Cell viability was determined using an ATP based luminescent assay (CellTiter-Glo, Promega) and the GloMax® Multi+ detection system (Promega). IC50 values were calculated using Prism 6 software.
(§3) To determine if induction of LMP1 and EBNA3 were linked to hypomethylating agent-induced cell death, cells were exposed to decitabine or 5-azacytadine over a range of doses and cell viability evaluated with the ATP-based Cell Titer-Glo® assay.

[6] = system: Kem I; experiment: Cell viability, CellTiter-Glo; conditions: 48 h, read-out: 48 Hour IC50
Experimental: as §1, §2, §3

[7] = system: Rael; experiment: Cell viability, CellTiter-Glo; conditions: read-out: 48 Hour IC50
Experimental: as §1, §2, §3

[8] = system: BL cells; experiment: Cell viability, CellTiter-Glo, statements for the BL cell panel
Experimental: as §1, §2, §3

[9] = Kem I cells, dose 2.5 uM, 48 hours, LMP1 transcript by in-well qRT-PCR, average of the two replicates
[10] = Kem I cells, dose 2.5 uM, 48 hours, LMP1 transcript by in-well qRT-PCR, screen replicate 1
[11] = Kem I cells, dose 2.5 uM, 48 hours, LMP1 transcript by in-well qRT-PCR, screen replicate 2
[12] = read-out: Average LMP1 Fold Increase, Kem I cells, dose 2.5 uM, 48 hours, LMP1 transcript by in-well qRT-PCR, average of the two replicates
[13] = read-out: Replicate 1-LMP1 Fold Increase, Kem I cells, dose 2.5 uM, 48 hours, LMP1 transcript by in-well qRT-PCR, screen replicate 1
[14] = read-out: Replicate 2-LMP1 Fold Increase, Kem I cells, dose 2.5 uM, 48 hours, LMP1 transcript by in-well qRT-PCR, screen replicate 2
[15] = Kem I cells, 2.5 uM, 48 hours, average of replicates 1 and 2
[16] = Kem I cells, 2.5 uM, 48 hours, fold change in LMP1 transcript vs vehicle

Nc1ncn([C@@H]2O[C@H](CO)[C@@H](O)[C@H]2O)c(=O)n1 [5-azacytidine]
fold induction at 1 µM ([1]; read-out: Average LMP1 Fold Increase, Kem I cells, 1 uM, 48 hours, average of replicates 1 and 2): 4.1
fold induction at 1 µM ([1]; read-out: Replicate 1-LMP1 Fold Increase, Kem I cells, 1 uM, 48 hours, fold change in LMP1 transcript vs vehicle): 5.77
fold induction at 1 µM ([1]; read-out: Replicate 2-LMP1 Fold Increase, Kem I cells, 1 uM, 48 hours, fold change in LMP1 transcript vs vehicle): 2.43
optimal dose for induction ([2]; BL cells): 1 to 4 µM
induction of LMP1 and Cp ([2]; at doses <1 μM, 48 hours): minimal
LMP1 and EBNA3C proteins (immunoblot) [3]: not associated with significant induction
expression of EBNA2 and LMP1 (IHC) [4]: more modest
IC50 [5]: 4 µM
IC50 [6]: > 5 µM
IC50 [7]: 2.2 µM
IC50 [8]: ≥ 2.2 µM
change in cell viability ([8]; at the optimal dose for induction): minimal change

CCc1c(C(=O)C(N)=O)c2c(OCC(=O)O)cccc2n1Cc1ccccc1 [Varespladib (LY315920)]
Average LMP1 Fold Increase [1, 9]: 0.52 fold
Replicate 1-LMP1 Fold Increase [1, 10]: 0.35 fold
Replicate 2-LMP1 Fold Increase [1, 11]: 0.69 fold

C[C@]1(c2nc3c(C(N)=O)cccc3[nH]2)CCCN1 [Veliparib (ABT-888)]
Average LMP1 Fold Increase [1, 9]: 1.08 fold
Replicate 1-LMP1 Fold Increase [1, 10]: 0.71 fold
Replicate 2-LMP1 Fold Increase [1, 11]: 1.45 fold

CCCS(=O)(=O)Nc1ccc(F)c(C(=O)c2c[nH]c3ncc(-c4ccc(Cl)cc4)cc23)c1F [Vemurafenib (PLX4032, RG7204)]
Average LMP1 Fold Increase [1, 9]: 0.41 fold
Replicate 1-LMP1 Fold Increase [1, 10]: 0.33 fold
Replicate 2-LMP1 Fold Increase [1, 11]: 0.50 fold

N#C[C@@H]1CCCN1C(=O)CNC12CC3CC(CC(O)(C3)C1)C2 [Vildagliptin (LAF-237)]
Average LMP1 Fold Increase [1, 9]: 0.72 fold
Replicate 1-LMP1 Fold Increase [1, 10]: 0.58 fold
Replicate 2-LMP1 Fold Increase [1, 11]: 0.87 fold

C[C@@H](c1ncncc1F)[C@](O)(Cn1cncn1)c1ccc(F)cc1F [Voriconazole]
fold induction at 2.5 µM [1, 12]: 1.48
fold induction at 2.5 µM [1, 13]: 1.02
fold induction at 2.5 µM [1, 14]: 1.94

c1ccc(NCc2ccc(CNc3ccccn3)cc2)nc1 [WZ811]
Average LMP1 Fold Increase [1, 9]: 0.08 fold
Replicate 1-LMP1 Fold Increase [1, 10]: 0.08 fold
Replicate 2-LMP1 Fold Increase [1, 11]: 0.08 fold

C=CC(=O)Nc1cccc(Oc2nc(Nc3ccc(N4CCN(C)CC4)cc3OC)ncc2Cl)c1 [WZ4002]
Average LMP1 Fold Increase [1, 9]: 0.90 fold
Replicate 1-LMP1 Fold Increase [1, 10]: 0.58 fold
Replicate 2-LMP1 Fold Increase [1, 11]: 1.23 fold

CCC(=O)Nc1cccc(Oc2nc(Nc3ccc(N4CCN(C)CC4)cc3OC)ncc2Cl)c1 [WZ4003]
Average LMP1 Fold Increase [1, 9]: 0.72 fold
Replicate 1-LMP1 Fold Increase [1, 10]: 0.79 fold
Replicate 2-LMP1 Fold Increase [1, 11]: 0.64 fold

Cc1cc(-c2ccc(CC(=O)Nc3ccc(-c4cccnc4)cc3)cc2)ccn1 [Wnt-C59 (C59)]
Average LMP1 Fold Increase [1, 9]: 0.98 fold
Replicate 1-LMP1 Fold Increase [1, 10]: 0.60 fold
Replicate 2-LMP1 Fold Increase [1, 11]: 1.35 fold

Oc1nc(-c2ccc(C(F)(F)F)cc2)nc2c1CSCC2 [XAV-939]
fold induction at 2.5 µM [1, 12]: 0.73
fold induction at 2.5 µM [1, 13]: 0.73
fold induction at 2.5 µM [1, 14]: 0.73

CC(C)OC(=O)C1=CN(C(=O)c2ccc(F)c(F)c2)CC(C)(C)c2c1[nH]c1ccccc21 [XL335]
fold induction at 2.5 µM [1, 12]: 0.27
fold induction at 2.5 µM [1, 13]: 0.39
fold induction at 2.5 µM [1, 14]: 0.14

COCC[n+]1c2c(n(Cc3cnccn3)c1C)C(=O)c1ccccc1C2=O.[Br-] [YM155 (Sepantronium Bromide)]
Average LMP1 Fold Increase [1, 9]: 0.00 fold
Replicate 1-LMP1 Fold Increase [1, 10]: 0.00 fold
Replicate 2-LMP1 Fold Increase [1, 11]: 0.00 fold

C[C@H](NC(=O)Cc1cc(F)cc(F)c1)C(=O)N[C@@H]1C(=O)N(C)c2ccccc2-c2ccccc21 [YO-01027]
Average LMP1 Fold Increase [1, 9]: 0.35 fold
Replicate 1-LMP1 Fold Increase [1, 10]: 0.44 fold
Replicate 2-LMP1 Fold Increase [1, 11]: 0.27 fold

Cc1cc(C)nc(NS(=O)(=O)c2ccc(NC(=S)NC(=O)COc3ccc(Br)cc3Cl)cc2)n1 [ZCL278]
Average LMP1 Fold Increase [1, 9]: 0.85 fold
Replicate 1-LMP1 Fold Increase [1, 10]: 1.26 fold
Replicate 2-LMP1 Fold Increase [1, 11]: 0.44 fold

COc1cc2ncnc(Nc3ccc(Cl)cc3F)c2cc1OC [ZM 306416]
Average LMP1 Fold Increase [1, 9]: 0.85 fold
Replicate 1-LMP1 Fold Increase [1, 10]: 0.70 fold
Replicate 2-LMP1 Fold Increase [1, 11]: 1.00 fold

COc1cc2c(Nc3ccc(NC(=O)c4ccccc4)cc3)ncnc2cc1OCCCN1CCOCC1 [ZM 447439]
Average LMP1 Fold Increase [1, 9]: 0.37 fold
Replicate 1-LMP1 Fold Increase [1, 10]: 0.34 fold
Replicate 2-LMP1 Fold Increase [1, 11]: 0.40 fold

O=c1ncccn1[C@@H]1O[C@H](CO)[C@@H](O)[C@H]1O [Zebularine]
fold induction at 2.5 µM [1, 12]: 0.52
fold induction at 2.5 µM [1, 13]: 0.24
fold induction at 2.5 µM [1, 14]: 0.79

COc1nc(C)cnc1NS(=O)(=O)c1cccnc1-c1ccc(-c2nnco2)cc1 [Zibotentan (ZD4054)]
Average LMP1 Fold Increase [1, 9]: 0.77 fold
Replicate 1-LMP1 Fold Increase [1, 10]: 0.57 fold
Replicate 2-LMP1 Fold Increase [1, 11]: 0.97 fold

Cl.Cl.Cl.O[C@@H](COc1cccc2ncccc12)CN1CCN([C@@H]2c3ccccc3[C@@H]3[C@H](c4ccccc42)C3(F)F)CC1 [Zosuquidar (LY335979) 3HCl]
Average LMP1 Fold Increase [1, 9]: 0.79 fold
Replicate 1-LMP1 Fold Increase [1, 10]: 0.64 fold
Replicate 2-LMP1 Fold Increase [1, 11]: 0.94 fold

(−)-MK 801 Maleate
Average LMP1 Fold Increase [1, 15]: 0.88
Replicate 1-LMP1 Fold Increase [1, 16]: 0.94
Replicate 2-LMP1 Fold Increase [1, 16]: 0.81

BAM7
Average LMP1 Fold Increase [1, 15]: 0.93
Replicate 1-LMP1 Fold Increase [1, 16]: 0.51
Replicate 2-LMP1 Fold Increase [1, 16]: 1.35

CHIR-98014
Average LMP1 Fold Increase [1]: 0.67
Replicate 1-LMP1 Fold Increase [1]: 0.81
Replicate 2-LMP1 Fold Increase [1]: 0.54

HA14-1
Average LMP1 Fold Increase [1, 15]: 0.73
Replicate 1-LMP1 Fold Increase [1, 16]: 0.62
Replicate 2-LMP1 Fold Increase [1, 16]: 0.83

I-BET151 (GSK1210151A)
Average LMP1 Fold Increase [1, 15]: 1.39
Replicate 1-LMP1 Fold Increase [1, 16]: 1.41
Replicate 2-LMP1 Fold Increase [1, 16]: 1.38

Ifenprodil Tartrate
Average LMP1 Fold Increase [1, 15]: 0.96
Replicate 1-LMP1 Fold Increase [1, 16]: 0.58
Replicate 2-LMP1 Fold Increase [1, 16]: 1.35

KX2-391
Average LMP1 Fold Increase [1, 15]: 1.63
Replicate 1-LMP1 Fold Increase [1, 16]: 2.01
Replicate 2-LMP1 Fold Increase [1, 16]: 1.25

Maraviroc
Average LMP1 Fold Increase [1, 15]: 1.08
Replicate 1-LMP1 Fold Increase [1, 16]: 0.44
Replicate 2-LMP1 Fold Increase [1, 16]: 1.72

OG-L002
Average LMP1 Fold Increase [1, 15]: 1.15
Replicate 1-LMP1 Fold Increase [1, 16]: 1.03
Replicate 2-LMP1 Fold Increase [1, 16]: 1.27

Pifithrin-μ
Average LMP1 Fold Increase [1, 15]: 0.78
Replicate 1-LMP1 Fold Increase [1, 16]: 0.40
Replicate 2-LMP1 Fold Increase [1, 16]: 1.17

S3I-201
Average LMP1 Fold Increase [1, 15]: 0.65
Replicate 1-LMP1 Fold Increase [1, 16]: 0.63
Replicate 2-LMP1 Fold Increase [1, 16]: 0.67

SN-38
Average LMP1 Fold Increase [1, 15]: 1.10
Replicate 1-LMP1 Fold Increase [1, 16]: 0.95
Replicate 2-LMP1 Fold Increase [1, 16]: 1.26

SNS-314 Mesylate
Average LMP1 Fold Increase [1, 15]: 0.51
Replicate 1-LMP1 Fold Increase [1, 16]: 0.71
Replicate 2-LMP1 Fold Increase [1, 16]: 0.32

VU 0357121
Average LMP1 Fold Increase [1, 9]: 0.48 fold
Replicate 1-LMP1 Fold Increase [1, 10]: 0.51 fold
Replicate 2-LMP1 Fold Increase [1, 11]: 0.46 fold

VU 0364439
Average LMP1 Fold Increase [1, 9]: 0.90 fold
Replicate 1-LMP1 Fold Increase [1, 10]: 1.34 fold
Replicate 2-LMP1 Fold Increase [1, 11]: 0.45 fold

VU 0364770
Average LMP1 Fold Increase [1, 9]: 1.03 fold
Replicate 1-LMP1 Fold Increase [1, 10]: 0.51 fold
Replicate 2-LMP1 Fold Increase [1, 11]: 1.55 fold
